Assay results published in patent US20170224775A1, “Lv PEPTIDE, ANTI-Lv ANTIBODY AND METHODS THEREOF” (The Texas A&M University System, priority 2016, published 2017).

Key:
Type in all cases: cell-based, chicken
L-VGCC = test: Whole-cell patch-clamp recordings of L-VGCC currents in cultured embryonic cardiomyocytes
Procedure: (§1) Fertilized eggs (Gallus gallus, Single Comb White Leghorns) were obtained from the Poultry Science Department, Texas A&M University (College Station, Tex., USA). All chicken embryos were maintained at 39° C.±0.5° C. Chicken hearts were harvested at embryonic day 12 (E12) and ventricular cardiomyocytes were dissociated and cultured on poly-D-lysine/collagen double-coated dishes (for biochemical and molecular biological assays) or coverslips (for electrophysiological recordings) as described previously. All cultures were maintained at 39° C.±0.5° C. with 5% CO2. Cells were cultured for 2-3 days and subjected to treatments with vehicle, peptide Lv, or pharmaceutical blockers prior to Western blotting or electrophysiological recordings.
Ventricular cardiomyocytes were cultured for two days. Whole-cell patch-clamp recordings of L-VGCC currents were carried out from spontaneously pulsing cardiomyocytes. The external solution was (in mM): 145 TEACl, 9 BaCl2, 0.5 MgCl2, 5.5 glucose, 0.1 NiCl2, and 5 HEPES, pH 7.4 with CsOH or TEAOH. The pipette solution was (in mM): 125 Cs acetate, 20 CsCl, 3MgCl2, 10 EGTA, and 5 HEPES, pH 7.4 adjusted with CsOH. Currents were recorded at room temperature using an A-M Systems model 2400 patch-clamp amplifier (Sequim, Wash., USA). Signals were low-pass filtered at 2 kHz and digitized at 5 kHz with Digidata 1440A interface and pCLAMP 10.0 software (Molecular Devices, Sunnyvale, Calif., USA). Cardiomyocytes were held at −40 mV, and Ba^2+ currents were recorded immediately after whole-cell patches were formed by gentle suctions. Current-voltage (I-V) relationships were elicited from a holding potential at −40 mV using 200 ms steps (5 seconds between steps) over a range from −60 to +60 mV in 10 mV increments. The current densities were calculated by dividing the current amplitudes (pA) by membrane capacitances (pF).

ERK and PKC = test: Western blot of pERK and pPKCα/β (downstream of VEGFR2) in cultured cardiomyocytes; conditions: inhibitor with peptide Lv
Procedure: as §1
(§2) Treated or control cells were washed and lysed in radioimmunoprecipitation assay (RIPA) buffer, and proteins were denatured by mixing with 2× Laemmli sample buffer for 5 minutes at 95° C. Samples were separated on 10% sodium dodecyl sulfate-polyacrylamide gel electrophoresis (SDS-PAGE) gels and transferred to nitrocellulose membranes. The primary antibodies used in this study were pan L-VGCCα1, ERK1/2, di-phosphorylated ERK1/2, actin, phosphorylated PKC α/βII subunit, phosphorylated tyrosine, VEGFR2, and phosphorylated VEGFR2 at tyr1054/1059. […]

VEGFR2 = test: Western blot of VEGFR2 autophosphorylation (pVEGFR2-tyr1054/1059) in cultured embryonic cardiomyocytes; conditions: DMH4 in presence of peptide Lv
Procedure: as §1, §2

COc1cccc(-c2cc(=O)c3ccccc3o2)c1N [PD98059]
peptide Lv augmentation of L-VGCC currents (L-VGCC; PD98059 50 μM): decreased the peptide Lv augmentation of L-VGCC currents

CN=c1nc(-c2ccccc2)n(-c2ccccc2)s1 [SCH202676]
inhibition of effects of peptide Lv on pERK and pPKCα/β (ERK and PKC): did not inhibit the effects of peptide Lv on pERK and pPKCα/β

COc1ccc2c(c[n+](C)c3c4cc5c(cc4ccc23)OCO5)c1OC [chelerythrine]
peptide Lv augmentation of L-VGCC currents (L-VGCC; chelerythrine 2 μM): decreased the peptide Lv augmentation of L-VGCC currents

DMH4
inhibition of peptide Lv-enhanced VEGFR2 phosphorylation (VEGFR2): sensitive to DMH4 inhibition
block of VEGFa augmentation of L-VGCCs (L-VGCC; DMH4 5 μM with VEGFa): blocked the augmentation of L-VGCCs by VEGFa
L-VGCCs, inhibitor by itself (L-VGCC; DMH4 alone, without peptide Lv): did not affect the LVGCCs
block of peptide Lv augmentation of L-VGCC currents (L-VGCC; DMH4 together with peptide Lv): able to block the augmentation effect of peptide Lv on L-VGCC currents
